In US6399612B1, “Heteroaryl butyric acids and their derivatives as inhibitors of matrix metalloproteinases” (Warner-Lambert Company, priority 1997, dated 2002):

Tests used:
Type in all cases: biochemical
Conditions in all cases: thiopeptolide substrate Ac-Pro-Leu-Gly-thioester-Leu-Leu-Gly-OEt
[1] = target: MMP-2CD (gelatinase A catalytic domain) (Homo sapiens, UniProt P08253); assay: MMP-2CD inhibition, thiopeptolide substrate
Experimental: (§1) Experiments were carried out with the catalytic domains of the proteinases. […] IC50 values were determined using a thiopeptolide substrate, Ac-Pro-Leu-Gly-thioester-Leu-Leu-Gly-OEt (Ye Q.-Z., Johnson L. L., Hupe D. J., and Baragi V., “Purification and Characterization of the Human Stromelysin Catalytic Domain Expressed in Escherichia coli”, Biochemistry, 1992;31:11231-11235).

[2] = target: T1, MMP-3CD (stromelysin-1 catalytic domain) (Homo sapiens, UniProt P08254); assay: MMP-3CD inhibition, thiopeptolide substrate
T1 construct: Experiments were carried out with the catalytic domains of the proteinases
Experimental: as §1

[3] = target: T2, MMP-13CD (collagenase-3 catalytic domain) (Homo sapiens, UniProt P45452); assay: MMP-13CD inhibition, thiopeptolide substrate
T2 construct: Experiments were carried out with the catalytic domains of the proteinases
Experimental: as §1

T1 sequence (P08254 100-272 limits assumed): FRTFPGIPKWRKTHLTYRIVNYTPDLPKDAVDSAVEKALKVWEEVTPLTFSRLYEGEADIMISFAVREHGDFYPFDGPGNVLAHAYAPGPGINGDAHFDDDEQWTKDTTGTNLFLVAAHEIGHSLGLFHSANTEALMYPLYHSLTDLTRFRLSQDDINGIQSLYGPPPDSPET

IC50 [1] [µM] | IC50 [2] [µM] | IC50 [3] [µM] | SMILES
1.25 | 13 | 10.6 | O=C(O)CCC(=NO)c1ccc(-n2cccn2)cc1 [Example 1, 4-Hydroxyimino-4-(4-pyrazol-1-yl-phenyl)butyric Acid]
0.0639 | 0.298 | 1.1 | O=C(O)CCC(=O)c1ccc(-c2ccc(Cl)s2)cc1 [Example 2, 4-[4-(5-Chloro-thiophen-2-yl)-phenyl]-4-oxo-butyric Acid]
0.014 | 0.105 | 0.12 | O=C(O)CCC(=NO)c1ccc(-c2ccc(Cl)s2)cc1 [Example 3]
